According to US9333212B2, “Proteasome inhibitors as ovoprotective agents to shield the ovary from chemotherapy toxicity” (Wisconsin Alumni Research Foundation, priority 2013, dated 2016):
“Also recorded” adds a separate entry of the source. Residues, ends and D or L forms follow the SMILES beside them. *: point of attachment. Cbz = O=C(OCc1ccccc1)*

Experiments:
[1] = DXR accumulation in mouse ovary by autofluorescence (spectral confocal imaging); format: in vivo; settings: Bort pretreatment before DXR
From the text: FIG. 11. […] A. Micrographs of mouse ovarian sections obtained by spectral confocal imaging (ex. 488 nm, em. given in panel B). Images are overlays of all collected emission wavelengths. Bar=40 μm. For print, images were adjusted equally to a threshold of 140 in Photoshop with no other image enhancements. B. Graph plots mean fluorescence intensity+/−SEM quantified from raw DXR fluorescence in ovarian sections representing the top, middle, and bottom third of the ovary. Emission profiles at 550-560 nm (cold finger) were not collected by the microscope to prevent direct detection of the excitation laser at that wavelength. Confocal parameters were identical from one sample to the next. DXR points are statistically significant from ctl and Bort-DXR with p<0.05, one-way ANOVA, Bonferroni means comparison.
Fluorescence Microscopy. Images were collected using a Nikon A1 laser scanning microscope with a motorized stage to image the entire section at 400× magnification. Each spectral image was taken at the Z plane providing maximal signal in the section utilizing identical laser settings with the spectral scan head, exciting at 488 nm and collecting emissions from 520 nm through 720 nm at 10 nm intervals. […] Total DXR fluorescence was measured in each section image using Nikon Elements, quantifying fluorescent intensity at each emission wavelength.

[2] = tested on: mouse ovarian cells (granulosa, stromal/thecal cells, oocytes); assay: Neutral comet assay of dsDNA breaks in ovarian cells isolated from treated mice
Method: The neutral comet assay was used to measure acute DXR-induced double-strand DNA breaks in an in vivo mouse model as previously described [32]. 4-week-old adolescent female CD1 mice were pre-treated with intraperitoneal (i.p.) injection of 0.143 mg/kg Bort 1 hr prior to 20 mg/kg DXR.
Four-week old female CD1 mice were treated with 0.143 mg/kg Bort or vehicle control, followed by 20 mg/kg DXR (twice the human equivalent dose) or saline via intraperitoneal injection (200 μL total volume/injection) 1 hour later. Three mice were injected per time point, 2, 4, 6, 12, and 24 hours, as indicated.
Neutral Comet Assay. Ovaries were processed to provide enriched populations of granulosa cells/oocytes, and stromal/thecal cells that were utilized in the neutral comet assay [9, 13]. At least 100 granulosa and stromal cells and 50 oocytes were imaged from blinded slides per time point per mouse (3 mice/replicate) [9, 13]. The comet moment to quantify DNA damage was scored using CometScore software. Data were normalized to control for each experiment to allow pooling across experiments.
Four week-old adolescent mice were pretreated with 0.143 mg/kg Bort or vehicle control via i.p. injection 1 hour prior to 20 mg/kg DXR i.p. injection. The Bort dose corresponded to ⅓ the lowest human equivalent dose utilized in chemo regimens (0.43 mg/m2 vs. 1.3 mg/m2), while the DXR dose was double the standard human equivalent dose to allow direct imaging of DXR fluorescence in subsequent experiments.

L1210 cells = settings: cited from earlier work
female CD-1 mice = assay: Breeding trial: pup birth weight and litter size of treated female mice; format: in vivo, mouse
Method: Both drugs were administered via i.p. injection. Female mice were then mated with proven fertile males starting at 8 weeks of age. Females were mated continuously with males, separated only for pup delivery, then re-mated immediately with rotated males. Pregnancy and litters were followed until females reached 8 months of age or became infertile.

KK-15 granulosa cells = assay: Neutral comet assay in KK-15 cells pretreated with proteasome inhibitor before DXR; format: cell-based; settings: 1 h pretreatment, then 3 hr 50 nM DXR
Method: FIG. 6. […] (A) Pretreating KK-15 cells for 1 h with the indicated Bortezomib doses prevented dsDNA breaks caused by 3 hr, 50 nM DXR treatment, as measured by the NCA. […] Bar graphs summarize comet moment data. Bortezomib (n=3, ***p<0.001), MG-132, (n=4, ***p<0.001) ANOVA with Bonferroni means comparison.
(§1) KK-15 cells were pretreated with either Bort or MG-132, boronate and aldehyde inhibitors, respectively, for 1 hr prior to DXR.

kidney = settings: by preserving Mcl-1 levels; cited from earlier work
[3] = tested on: γH2AX phosphorylation, PTEN, phospho-AKT1, Caspase 3 in mouse ovary; assay: Western blots of ovarian lysates for cell response markers
Method: Lysate Preparation and Western Blots. Ovaries were homogenized, protein quantified, and WBs were conducted previously described [9]. Blots were probed with rabbit anti-γH2AFX antibody (Abcam, 1:500), and mouse anti-β actin (Sigma, 1:10,000), rabbit anti-phospho AKT1 (Cell Signaling 1:1000), rabbit anti-PTEN (Cell Signaling 1:1000), and rabbit anti-Caspase 3 (Cell Signaling 1:1000. WBs were scanned and analyzed using the 5 LiCor Odyssey System (UW-Small Molecule Screening Facility) [9].
Mice. […] Four-week old female CD1 mice were treated with 0.143 mg/kg Bort or vehicle control, followed by 20 mg/kg DXR (twice the human equivalent dose) or saline via intraperitoneal injection (200 μL total volume/injection) 1 hour later. Three mice were injected per time point, 2, 4, 6, 12, and 24 hours, as indicated. Mice were euthanized with CO2 per approved protocol, and ovaries were processed as previously described [13].
To determine whether Bort prevents the cellular response to DXR insult, Western blots (WBs) of ovarian lysates were probed for cell response markers at 6 and 24 hrs post-injection.

mouse ovarian follicles [4] = assay: TUNEL assay, follicular apoptotic index in mouse ovary; format: in vivo
From the text: FIG. 5. […] Ovaries were harvested from treated mice 12 hrs post-DXR injection, fixed, and processed for the TUNEL assay. Apoptotic index measures the fraction of cells dying via apoptosis in each group. *p<0.05 one-way ANOVA n=4 mice.
To determine whether Bort pretreatment prevents DXR-induced follicular apoptosis, ovaries were harvested from mice treated with control, DXR, or Bort+DXR, 12 hrs after chemotherapy administration. Ovaries were fixed and stained using the TUNEL assay. Follicles were scored as apoptotic if they contained ≧4 TUNEL-positive granulosa cells.
TUNEL Staining. Apoptosis was detected utilizing ApopTag Plus Fluorescein In Situ Apoptosis Detection Kit as previously described. Nuclei were counterstained with 0.5 ug/mL Propidium Iodide. Apoptotic index was determined only counting follicles containing a visible oocyte; follicle types were differentiated by standard morphology and size ranges. Primary, secondary, and antral follicles were considered positive if they had ≧4 TUNEL-positive granulosa cells.
To ascertain whether Bort pretreatment prevents DXR-induced follicular apoptosis, ovaries were harvested from mice treated with control vehicle, Bort, DXR, or Bort+DXR, 12 hrs after chemo administration.

[5] = tested on: mouse ovarian cells (granulosa, stromal/thecal cells, oocytes); settings: previous characterization, cited from earlier work
[6] = 1 month post-DXR; cited from earlier work
KK-15 cells = assay: DXR LD50 in KK-15 cells; format: cell-based
From the text: as §1

mouse ovarian follicles [7] = settings: previous characterization, cited from earlier work
[8] = in vivo; cited from earlier work
[9] = tested on: cardiac-derived H9C2 cells; settings: cited from earlier work
rodent ovary = settings: in vivo; cited from earlier work
[10] = Bort pretreatment, 24 hrs post-injection
[11] = Bort pretreatment vs DXR alone, 12 hrs post-DXR

Compound: CC(C)C[C@H](NC(=O)[C@H](Cc1ccccc1)NC(=O)c1cnccn1)B(O)O [Bort, bortezomib]
- DXR fluorescence (accumulation) in the ovary [1]: dropped DXR fluorescence to baseline levels; also recorded: lack of chemo accumulation; also recorded: prevented DXR accumulation
- comet moment, stromal cells, deviation from control ([2]; 0.143 mg/kg Bort i.p. 1 hr before 20 mg/kg DXR): ≤ 16 % of control
- comet moment, granulosa cells, deviation from control ([2]; 0.143 mg/kg Bort i.p. 1 hr before 20 mg/kg DXR, 2-24 hrs): ≤ 10 % of control
- DXR-induced DNA damage in stroma cells ([2]; Bort pretreatment, 4 hrs post-DXR): attenuates DXR-induced DNA damage
- DXR-induced DNA damage in granulosa and stromal cells ([2]; Bort pretreatment, 12 hrs post-DXR): attenuates DXR-induced DNA damage
- DXR-induced DNA damage in granulosa cells ([2]; Bort pretreatment, 24 hrs post-DXR): attenuates DXR-induced DNA damage
- DXR-induced DNA damage in oocytes ([2]; Bort pretreatment, 24 hrs post-DXR injection): completely blocked DNA damage
- DXR-induced dsDNA breaks in all ovarian cell types (granulosa, stromal cells, oocytes) ([2]; Bort pretreatment, entire 24 hour acute insult period): completely prevented DXR-induced DNA damage; also recorded: blocked DXR-induced dsDNA breaks; also recorded: prevents DXR-induced dsDNA breaks; also recorded: prevented DXR-induced double strand DNA breaks
- comet moment in stromal cells at 2 hrs ([2]; Bort-DXR mice, 2 hrs, followed by a drop back to baseline): small rise in comet moment
- DXR nuclear accumulation in L1210 cells (L1210 cells): prevent DXR nuclear accumulation
- pup weight, deviation from control (female CD-1 mice; 0.143 mg/kg Bortezomib 1 hour before 10 mg/kg DXR): ≤ 6 % of control
- litter size, mating round 1 (female CD-1 mice; Bort-DXR treated mice, round 1): 8 pups
- litter size, mating round 6 (female CD-1 mice; Bort-DXR treated mice, round 6, end of the trial): 12 pups
- DXR-induced dsDNA breaks in KK-15 cells (comet moment) (KK-15 granulosa cells): prevented DNA damage
- DXR-induced dsDNA breaks in KK-15 cells (comet moment) (KK-15 granulosa cells; listed as Bortezomib): limited DXR-induced dsDNA breaks
- protection of the kidney from cisplatin toxicity (kidney): shields the kidney from cisplatin toxicity
- DXR-induced γH2A.X phosphorylation ([3]; 1 hr Bort pretreatment, 6 hrs post-DXR injection): attenuated DXR-induced γH2A.X phosphorylation; also recorded: attenuates γH2AX phosphorylation
- DXR-induced PTEN protein reduction ([3]; Bort pretreatment, 6 hrs post-injection): PTEN protein reduction was eliminated
- DXR-induced decrease of full-length Caspase 3 [3, 10]: prevented
- DXR-induced loss of pAKT1 [3, 10]: similarly prevented; also recorded: restored AKT1 phosphorylation to control levels
- DXR-induced apoptosis in the mouse ovary / ovarian follicles (mouse ovarian follicles [4]; 0.143 mg/kg Bort 1 hr before 20 mg/kg DXR, 12 hrs): attenuates DXR-induced apoptosis; also recorded: prevented DXR-induced apoptosis
- antral follicle apoptotic index (mouse ovarian follicles [4]; [11]): small decrease in the antral follicle apoptotic index; also recorded: did not prevent antral follicle apoptosis
- primary follicle apoptosis (TUNEL) (mouse ovarian follicles [4]; [11]): decreased apoptosis in primary follicles; also recorded: appeared to decrease apoptosis in primary follicles
- secondary follicle apoptosis (TUNEL) (mouse ovarian follicles [4]; [11]): levels not different from control; also recorded: significantly attenuated TUNEL signal in secondary follicles

Compound: COc1cccc2c1C(=O)c1c(O)c3c(c(O)c1C2=O)C[C@@](O)(C(=O)CO)C[C@@H]3O[C@H]1C[C@H](N)[C@H](O)[C@H](C)O1 [DXR, Doxorubicin]
- increase of DNA damage over control, granulosa cells ([5]; DXR): ~2 fold
- maximal increase of DNA damage, stromal cells ([5]; DXR): 50%
- time of first DNA damage, granulosa cells ([5]; post-injection): 4 h
- time of first DNA damage, stromal/theca cells ([5]; post-injection): 2 h
- time of first significant DNA damage over control, oocytes ([5]; post-injection): 10 to 12 h
- comet moment (dsDNA breaks), stromal cells ([2]; 20 mg/kg DXR i.p. alone): 150 % control values
- comet moment (dsDNA breaks), granulosa cells ([2]; 20 mg/kg DXR i.p. alone, rise over 2-24 hrs post-injection): 250 % control values
- ovulation rate relative to pre-DXR [6]: 50%
- LD50 (KK-15 cells): 50 nM
- litter size relative to control (female CD-1 mice; 10 mg/kg DXR): 50 % of control
- decrease of pup birth weight compared to controls (female CD-1 mice; 10 mg/kg DXR i.p. to 4 week old females): 17%
- litter size (female CD-1 mice; 10 mg/kg DXR, over mating rounds): 5-8 pups/litter
- apoptotic index, antral follicles (mouse ovarian follicles [7]; 8 hrs post-DXR): 100%
- apoptotic index, primary follicles (mouse ovarian follicles [7]; 12 hours post-DXR): 12%
- apoptotic index, secondary follicles (plateau) (mouse ovarian follicles [7]; 12 hours post-DXR): 40%
- time of first apoptotic events in primordial follicles (mouse ovarian follicles [7]; post-DXR): 48 h
- time to clearance from the blood stream [8]: 15 to 30 min
- PTEN protein expression ([3]; DXR alone, 6 hrs post-injection): appeared to decrease PTEN protein expression levels
- phosphorylated AKT1 (pAKT1) levels ([3]; DXR alone, 24 hrs post-injection): appeared to decrease levels of phosphorylated AKT1
- γH2A.X phosphorylation (17 kDa band) ([3]; DXR alone, ovarian lysates 6 hrs post-injection): increased γH2A.X phosphorylation
- apoptotic-positive secondary follicles (mouse ovarian follicles [4]; DXR alone, 12 hrs): doubling of apoptotic-positive secondary follicles

Compound: CC(C)C[C@@H](C=O)NC(=O)[C@H](CC(C)C)NC(=O)[C@H](CC(C)C)NC(=O)OCc1ccccc1 [MG-132] (Cbz-Leu-Leu-Leu-aldehyde)
- DXR-induced DNA damage in H9C2 cells [9]: prevents DXR-induced DNA damage
- DXR nuclear accumulation in L1210 cells (L1210 cells): prevent DXR nuclear accumulation
- DXR-induced dsDNA breaks in KK-15 cells (comet moment) (KK-15 granulosa cells): limited DXR-induced dsDNA breaks; also recorded: prevented DNA damage

Compound: N.N.[Cl][Pt][Cl] [cisplatin]
- circulating and follicular anti-mullerian hormone (AMH) levels (rodent ovary): decreases circulating and follicular levels of anti-mullerian hormone (AMH)
- pregnancy rates and pups per litter (rodent ovary): decreases pregnancy rates and pups per litter
